In one test the test system is Erysiphe graminis. In words: Erysiphe graminis potting method. In kind it is in vivo. To be noted: Blumeria graminis; 100 mg/L; read-out: Erysiphe graminis control rating. How it is done:
The fungicidal activity of the control agents and target compounds are determined. The test and investigation method refers to SOP-SC-1116 Erysiphe graminis potting method in disinfectant rolls written by KANGZHUO and GUBAOGEN in “Standard operation specification for testing biological activity of pesticides”.

Another test addresses T1, succinate dehydrogenase (Sus scrofa, UniProt A5GZW8+D0VWV4+Q007T0).
T1 construct: isolated from porcine hearts; from tissue; host or cells: porcine heart
In words: Enzyme activity assay, succinate dehydrogenase (DCIP reduction). In kind it is biochemical, porcine. The conditions noted are these: read-out: Inhibitors (10 μM, SQR). Summed up: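 Porcine heart succinate dehydrogenase (2 nM) in 100 mM sodium phosphate pH 7.4, 0.3 mM EDTA, 20 mM sodium succinate and 53 μM DCIP at 23° C with stirring. DCIP reduction followed at 600 nm (ε 21 mM^−1 cm^−1); linear slope minus baseline gives initial rate.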

A further test concerns Sphaerotheca fuliginea. As to the kind of experiment: Sphaerotheca fuliginea potting method. In kind it is in vivo. The conditions noted are these: Podosphaera fuliginea; 100 mg/L; read-out: Sphaerotheca fuliginea control rating. How it is done: The fungicidal activity of the control agents and target compounds are determined. The test and investigation method refers to SOP-SC-1101 sphaerotheca fuliginea potting method in disinfectant rolls written by KANGZHUO and GUBAOGEN in “Standard operation specification for testing biological activity of pesticides”.

Bounds are passed on as bounds.

T1 sequence (Q0QF01 43-664 partner): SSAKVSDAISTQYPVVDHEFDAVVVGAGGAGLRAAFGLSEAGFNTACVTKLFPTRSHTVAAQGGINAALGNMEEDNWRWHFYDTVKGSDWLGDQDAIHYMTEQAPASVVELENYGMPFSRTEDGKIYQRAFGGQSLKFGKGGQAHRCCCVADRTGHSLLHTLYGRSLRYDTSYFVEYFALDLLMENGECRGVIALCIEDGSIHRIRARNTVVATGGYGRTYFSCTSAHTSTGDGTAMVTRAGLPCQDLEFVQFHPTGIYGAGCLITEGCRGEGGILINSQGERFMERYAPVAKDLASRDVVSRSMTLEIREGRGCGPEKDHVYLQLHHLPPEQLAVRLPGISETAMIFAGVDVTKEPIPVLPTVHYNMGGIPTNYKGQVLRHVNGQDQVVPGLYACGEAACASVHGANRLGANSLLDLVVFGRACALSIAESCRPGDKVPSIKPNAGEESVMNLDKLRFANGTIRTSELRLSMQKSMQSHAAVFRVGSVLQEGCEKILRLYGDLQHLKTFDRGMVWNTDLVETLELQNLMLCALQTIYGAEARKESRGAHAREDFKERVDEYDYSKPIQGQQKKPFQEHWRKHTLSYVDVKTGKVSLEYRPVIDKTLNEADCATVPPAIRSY
T1 sequence (Q007T0 29-280): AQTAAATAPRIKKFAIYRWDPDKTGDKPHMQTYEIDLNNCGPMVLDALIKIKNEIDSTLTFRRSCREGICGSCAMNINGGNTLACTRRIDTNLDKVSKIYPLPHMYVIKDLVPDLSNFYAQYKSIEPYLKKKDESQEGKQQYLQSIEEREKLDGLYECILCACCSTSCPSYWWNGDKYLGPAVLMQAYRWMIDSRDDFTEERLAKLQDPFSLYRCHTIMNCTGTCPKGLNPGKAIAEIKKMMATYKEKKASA
T1 sequence (D0VWV4 30-169): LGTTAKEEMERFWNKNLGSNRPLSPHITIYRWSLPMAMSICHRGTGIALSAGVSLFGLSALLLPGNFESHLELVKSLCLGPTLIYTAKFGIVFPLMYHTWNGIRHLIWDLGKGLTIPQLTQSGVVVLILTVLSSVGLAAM
T1 sequence (A5GZW8 57-159 limits assumed): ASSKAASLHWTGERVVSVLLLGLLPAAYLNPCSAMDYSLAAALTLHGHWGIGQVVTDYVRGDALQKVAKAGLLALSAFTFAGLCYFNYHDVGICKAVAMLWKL

Consider `C=C(c1ccc(C)cc1C)C(C)N(C(=O)c1c(C(F)F)nn(C)c1F)C1CC1` (stereo not drawn) [Compound 88], for which the pest or weed control at 100 µg/mL with Erysiphe graminis and with Sphaerotheca fuliginea was 80 to 100% throughout. Besides, the inhibition at 10 µM at succinate dehydrogenase is greater than 90%.
Regarding `C=C(c1cc(C)ccc1C)C(C)N(C(=O)c1c(C(F)F)nn(C)c1F)C1CC1` (stereo not drawn) [Compound 89], the pest or weed control at 100 µg/mL in the test with Erysiphe graminis and in the test on Sphaerotheca fuliginea was 80 to 100% in each case. Further, the inhibition at 10 µM on succinate dehydrogenase was greater than 90%.
Take `C=C(c1c(C)cccc1C)C(C)N(C(=O)c1c(C(F)F)nn(C)c1F)C1CC1` (stereo not drawn) [Compound 90]: the pest or weed control at 100 µg/mL in the test with Erysiphe graminis and in the test with Sphaerotheca fuliginea was 80 to 100% throughout. At succinate dehydrogenase, the inhibition at 10 µM was greater than 90%.
As to `C=C(c1c(C)cc(C)cc1C)C(C)N(C(=O)c1c(C(F)F)nn(C)c1F)C1CC1` (stereo not drawn) [Compound 91], the pest or weed control at 100 µg/mL with Erysiphe graminis and in the test with Sphaerotheca fuliginea was 80 to 100% in each case. Further, the inhibition at 10 µM at succinate dehydrogenase is greater than 90%.
On to `C=C(c1cc(C(C)C)ccc1C)C(C)N(C(=O)c1c(C(F)F)nn(C)c1F)C1CC1` (stereo not drawn) [Compound 92], for which the pest or weed control at 100 µg/mL in the test with Erysiphe graminis and in the test on Sphaerotheca fuliginea was 80 to 100% in each case. Also, the inhibition at 10 µM on succinate dehydrogenase is greater than 90%.
For the compound `C=C(c1cc(C)ccc1C(C)C)C(C)N(C(=O)c1c(C(F)F)nn(C)c1F)C1CC1` (stereo not drawn) [Compound 93], the pest or weed control at 100 µg/mL in the test on Erysiphe graminis and in the test on Sphaerotheca fuliginea was 80 to 100% each time. For the same compound, the inhibition at 10 µM at succinate dehydrogenase is greater than 90%.
As to `C=C(c1cc(C)ccc1C(C)(C)C)C(C)N(C(=O)c1c(C(F)F)nn(C)c1F)C1CC1` (stereo not drawn) [Compound 94], the pest or weed control at 100 µg/mL in the test on Erysiphe graminis and in the test on Sphaerotheca fuliginea was 80 to 100% in each case. The inhibition at 10 µM on succinate dehydrogenase was greater than 90%.
For the compound `C=C(c1cc(C(C)(C)C)ccc1C)C(C)N(C(=O)c1c(C(F)F)nn(C)c1F)C1CC1` (stereo not drawn) [Compound 95], the pest or weed control at 100 µg/mL in the test with Erysiphe graminis and in the test with Sphaerotheca fuliginea was 80 to 100% each time. For the same compound, at succinate dehydrogenase, the inhibition at 10 µM is greater than 90%.
As to `C=C(c1ccc(C(C)C)cc1C)C(C)N(C(=O)c1c(C(F)F)nn(C)c1F)C1CC1` (stereo not drawn) [Compound 96], the pest or weed control at 100 µg/mL with Erysiphe graminis and with Sphaerotheca fuliginea was 80 to 100% throughout. Further, the inhibition at 10 µM at succinate dehydrogenase was greater than 90%.
As for `C=C(c1ccc(Cl)cc1F)C(C)N(C(=O)c1c(C(F)F)nn(C)c1F)C1CC1` (stereo not drawn) [Compound 97], the pest or weed control at 100 µg/mL with Erysiphe graminis and in the test with Sphaerotheca fuliginea was 80 to 100% in each case. Besides, the inhibition at 10 µM at succinate dehydrogenase is greater than 90%.
Turning to `C=C(c1ccc(F)cc1Cl)C(C)N(C(=O)c1c(C(F)F)nn(C)c1F)C1CC1` (stereo not drawn) [Compound 98], the pest or weed control at 100 µg/mL in the test on Erysiphe graminis and in the test on Sphaerotheca fuliginea was 80 to 100% in each case. Also, the inhibition at 10 µM on succinate dehydrogenase was greater than 90%.
For the compound `C=C(c1cc(Cl)ccc1F)C(C)N(C(=O)c1c(C(F)F)nn(C)c1F)C1CC1` (stereo not drawn) [Compound 99], the pest or weed control at 100 µg/mL with Erysiphe graminis and in the test with Sphaerotheca fuliginea was 80 to 100% in each case. Further, the inhibition at 10 µM on succinate dehydrogenase was greater than 90%.
Turning to `C=C(c1cc(C(F)(F)F)ccc1Cl)C(C)N(C(=O)c1c(C(F)F)nn(C)c1F)C1CC1` (stereo not drawn) [Compound 100], the pest or weed control at 100 µg/mL with Erysiphe graminis and in the test with Sphaerotheca fuliginea was 80 to 100% each time. On succinate dehydrogenase, the inhibition at 10 µM is greater than 90%.
On to `C=C(c1cccc(C(F)(F)F)c1Cl)C(C)N(C(=O)c1c(C(F)F)nn(C)c1F)C1CC1` (stereo not drawn) [Compound 101], for which the pest or weed control at 100 µg/mL in the test with Erysiphe graminis and in the test on Sphaerotheca fuliginea was 80 to 100% in each case. Besides, on succinate dehydrogenase, the inhibition at 10 µM is greater than 90%.
Turning to `C=C(c1ccc(C(F)(F)F)cc1Cl)C(C)N(C(=O)c1c(C(F)F)nn(C)c1F)C1CC1` (stereo not drawn) [Compound 102], the pest or weed control at 100 µg/mL in the test on Erysiphe graminis and in the test with Sphaerotheca fuliginea was 80 to 100% throughout. For the same compound, on succinate dehydrogenase, the inhibition at 10 µM was greater than 90%.
Consider `C=C(c1ccc(S(C)(=O)=O)cc1Cl)C(C)N(C(=O)c1c(C(F)F)nn(C)c1F)C1CC1` (stereo not drawn) [Compound 103], for which the pest or weed control at 100 µg/mL in the test with Erysiphe graminis and in the test on Sphaerotheca fuliginea was 80 to 100% in each case. Besides, the inhibition at 10 µM at succinate dehydrogenase was greater than 90%.
Consider `C=C(c1cccc(S(C)(=O)=O)c1)C(C)N(C(=O)c1c(C(F)F)nn(C)c1F)C1CC1` (stereo not drawn) [Compound 104], for which the pest or weed control at 100 µg/mL in the test with Erysiphe graminis and with Sphaerotheca fuliginea was 80 to 100% throughout. Also, the inhibition at 10 µM on succinate dehydrogenase is greater than 90%.
In the case of `C=C(c1ccccc1S(C)(=O)=O)C(C)N(C(=O)c1c(C(F)F)nn(C)c1F)C1CC1` (stereo not drawn) [Compound 105], the pest or weed control at 100 µg/mL in the test on Erysiphe graminis and with Sphaerotheca fuliginea was 80 to 100% in each case. Besides, the inhibition at 10 µM at succinate dehydrogenase was greater than 90%.
With `C=C(c1cc(S(C)(=O)=O)ccc1Cl)C(C)N(C(=O)c1c(C(F)F)nn(C)c1F)C1CC1` (stereo not drawn) [Compound 106], the pest or weed control at 100 µg/mL in the test on Erysiphe graminis and in the test on Sphaerotheca fuliginea was 80 to 100% throughout. Besides, the inhibition at 10 µM on succinate dehydrogenase was greater than 90%.
For the compound `C=C(c1ccc(S(=O)(=O)CC)cc1)C(C)N(C(=O)c1c(C(F)F)nn(C)c1F)C1CC1` (stereo not drawn) [Compound 107], the pest or weed control at 100 µg/mL with Erysiphe graminis and in the test with Sphaerotheca fuliginea was 80 to 100% each time. For the same compound, the inhibition at 10 µM on succinate dehydrogenase is greater than 90%.
Take `C=C(c1cccc(S(=O)(=O)CC)c1)C(C)N(C(=O)c1c(C(F)F)nn(C)c1F)C1CC1` (stereo not drawn) [Compound 108]: the pest or weed control at 100 µg/mL with Erysiphe graminis and with Sphaerotheca fuliginea was 80 to 100% in each case. The inhibition at 10 µM at succinate dehydrogenase was greater than 90%.
As to `C=C(c1ccc(C#CC2CC2)cc1F)C(C)N(C(=O)c1c(C(F)F)nn(C)c1F)C1CC1` (stereo not drawn) [Compound 110], the pest or weed control at 100 µg/mL in the test on Erysiphe graminis and with Sphaerotheca fuliginea was 80 to 100% in each case. In addition, the inhibition at 10 µM on succinate dehydrogenase is greater than 90%.
`Cn1nc(C(F)F)c(C(=O)N(CC(=C(Cl)Cl)c2ccccc2)C2CC2)c1F` [Compound 111]: the pest or weed control at 100 µg/mL with Erysiphe graminis and in the test on Sphaerotheca fuliginea was 80 to 100% throughout. Moreover, on succinate dehydrogenase, the inhibition at 10 µM is greater than 90%.
In the case of `Cn1nc(C(F)F)c(C(=O)N(CC(=C(Cl)Cl)c2ccc(Cl)cc2)C2CC2)c1F` [Compound 112], the pest or weed control at 100 µg/mL with Erysiphe graminis and with Sphaerotheca fuliginea was 80 to 100% in each case. Besides, the inhibition at 10 µM on succinate dehydrogenase was greater than 90%.
`Cn1nc(C(F)F)c(C(=O)N(CC(=C(Cl)Cl)c2ccc(Cl)cc2)C2CC2)c1Cl` [Compound 113]: the pest or weed control at 100 µg/mL in the test with Erysiphe graminis and in the test with Sphaerotheca fuliginea was 80 to 100% in each case. Besides, the inhibition at 10 µM on succinate dehydrogenase was greater than 90%.
As for `Cn1cc(C(=O)N(CC(=C(Cl)Cl)c2ccc(Cl)cc2)C2CC2)c(C(F)F)n1` [Compound 114], the pest or weed control at 100 µg/mL with Erysiphe graminis and in the test with Sphaerotheca fuliginea was 80 to 100% in each case. Moreover, the inhibition at 10 µM on succinate dehydrogenase was greater than 90%.
`Cn1nc(C(F)F)c(C(=O)N(CC(=C(Cl)Cl)c2ccccc2F)C2CC2)c1F` [Compound 115]: the pest or weed control at 100 µg/mL in the test with Erysiphe graminis and in the test on Sphaerotheca fuliginea was 80 to 100% throughout. Further, on succinate dehydrogenase, the inhibition at 10 µM is greater than 90%.
In the case of `Cn1nc(C(F)F)c(C(=O)N(CC(=C(Cl)Cl)c2ccccc2Cl)C2CC2)c1F` [Compound 116], the pest or weed control at 100 µg/mL with Erysiphe graminis and with Sphaerotheca fuliginea was 80 to 100% in each case. Besides, the inhibition at 10 µM at succinate dehydrogenase is greater than 90%.
In the case of `Cn1nc(C(F)F)c(C(=O)N(CC(=C(Cl)Cl)c2cccc(Cl)c2)C2CC2)c1F` [Compound 117], the pest or weed control at 100 µg/mL in the test with Erysiphe graminis and with Sphaerotheca fuliginea was 80 to 100% each time. At succinate dehydrogenase, the inhibition at 10 µM is greater than 90%.

For the origin of these results see patent US12540118B2, “Dendrene amide compound, bactericide and use thereof” (Jiangsu Flag Chemical Industry Co., Ltd., priority 2020, dated 2026).
